Results on three compounds are retold here after ChEMBL document CHEMBL1131278, “Synthesis and in vitro cancer cell growth inhibitory activity of monocyclic model compounds containing spongistatin triene side-chains” (Bioorg Med Chem Lett, 1998).

Converted amounts (≈) assume the structure as drawn. Where only a bound is given, the exact number is not on record here.

One may read the GI50 as the concentration giving 50% growth inhibition. Broadly, the IC50 is the point on the concentration scale where inhibition reaches its midpoint. A low value points to inhibition by little substance.

Assay type in all cases: functional
The subject of one assay is SW-1736. The assay is described as follows: In vitro growth inhibitory activity against cancer cell line Thyroid ca SW 1736. The settings on record: Homo sapiens.
The next assay concerns DU-145. In words: In vitro growth inhibitory activity against cancer cell line Prostate DU-145. The settings on record: Homo sapiens.
A further assay has as its system NCI-H460. In words: In vitro growth inhibitory activity against cancer cell line Lung-NSC NCI-H460. Conditions: Homo sapiens.
In a further assay the test system is FaDu. The assay is described as follows: In vitro growth inhibitory activity against cancer cell line Pharynx-sq FADU. Conditions: Homo sapiens.
Another assay deals with SK-N-SH. The assay is described as follows: In vitro growth inhibitory activity against cancer cell line Neuroblast SK-N-SH. Conditions: Homo sapiens.
In the next assay the test system is BXPC-3. The assay is described as follows: In vitro growth inhibitory activity against cancer cell line Pancreas-a BXPC-3. Conditions: Homo sapiens.
The target in a further assay is Tubulin alpha chain (Sus scrofa, UniProt P02550). The assay is described as follows: Compound was tested for its ability to inhibit the glutamate induced polymerization of tubulin.
Sequence of Tubulin alpha chain (P02550 whole entry, looked up): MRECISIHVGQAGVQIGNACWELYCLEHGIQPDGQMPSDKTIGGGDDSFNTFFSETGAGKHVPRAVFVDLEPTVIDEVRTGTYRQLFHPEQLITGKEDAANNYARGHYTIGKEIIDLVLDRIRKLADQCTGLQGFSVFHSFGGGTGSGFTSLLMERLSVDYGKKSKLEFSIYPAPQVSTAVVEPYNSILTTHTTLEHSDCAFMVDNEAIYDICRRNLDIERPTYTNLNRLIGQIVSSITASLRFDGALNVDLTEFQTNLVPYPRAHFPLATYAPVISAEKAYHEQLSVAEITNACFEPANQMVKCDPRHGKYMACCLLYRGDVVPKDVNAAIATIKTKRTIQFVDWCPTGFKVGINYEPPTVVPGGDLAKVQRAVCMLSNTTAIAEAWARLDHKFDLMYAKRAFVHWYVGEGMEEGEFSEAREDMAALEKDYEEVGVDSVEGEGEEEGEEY

With `C=C/C=C/[C@@H](O)CC(=C)C[C@H]1O[C@H](OC)[C@H](OCc2ccccc2)[C@@H](OCc2ccccc2)[C@@H]1OCc1ccccc1`, the 50% growth inhibitory concentration (GI50) with SW-1736 was found to be 0.7 µg/mL (≈ 1.23 µM); with DU-145 it was 0.32 µg/mL (≈ 0.561 µM); in the assay on NCI-H460, 0.26 µg/mL (≈ 0.456 µM); in the assay with FaDu, 0.27 µg/mL (≈ 0.473 µM); in the assay on SK-N-SH it was 0.31 µg/mL (≈ 0.543 µM); in the assay on BXPC-3, 0.25 µg/mL (≈ 0.438 µM).

For the compound `C=C(Cl)/C=C/[C@@H](O)CC(=C)C[C@H]1O[C@H](OC)[C@H](OCc2ccccc2)[C@@H](OCc2ccccc2)[C@@H]1OCc1ccccc1`, the concentration for 50% growth inhibition (GI50) was 5.8 µg/mL (≈ 9.58 µM) with SW-1736; over 10 µg/mL with DU-145; 6.6 µg/mL (≈ 10.9 µM) in the assay on NCI-H460; 5 µg/mL (≈ 8.26 µM) with FaDu; 2.2 µg/mL (≈ 3.64 µM) in the assay on SK-N-SH; 3.2 µg/mL (≈ 5.29 µM) in the assay on BXPC-3.

Regarding `C=C(Cl)/C=C/[C@@H](O)C(C)C(=C)C[C@H]1O[C@@H]2[C@H](C)[C@@H](OC(=O)C[C@H]3C[C@H](OC(C)=O)C[C@@]4(C[C@@](C)(O)C[C@H](CC(=C)[C@@H](C)[C@H](OC(C)=O)[C@H](C)C(=O)C[C@@H]5C[C@H](OC)C[C@@]6(C[C@@H](O)C[C@H](/C=C\CCC[C@H]7O[C@](O)(C[C@H](O)[C@H]7C)[C@H]2O)C6)O5)O4)O3)[C@@H]1O` (stereo partly drawn) [Spongistatin-1], the midpoint of inhibition against Tubulin alpha chain, the IC50, lay at 3.6 µM.
